Test results published in patent US20120295907A1, “INSECTICIDAL COMPOUNDS” (SYNGENTA CROP PROTECTION, LLC, priority 2009, published 2012).
Read-outs that look alike come from different tables or passages of the source.

Tests used:
Assay type in all cases: in vivo
Heliothis virescens = Heliothis virescens (Tobacco Budworm) egg test on artificial diet; details: 96 h, 200 ppm (concentration in well 18 ppm), eggs 0-24 h old on artificial diet, 4 days, egg mortality, larval mortality, growth regulation
Myzus persicae = Myzus persicae (Green Peach Aphid) sunflower leaf disc spray test; details: foliar, 144 h, 200 ppm spray on sunflower leaf discs, aphid population of mixed ages, 6 DAT, mortality
Plutella xylostella = Plutella xylostella (Diamond Back Moth) artificial diet MTP test; details: 144 h, 200 ppm (concentration in well 18 ppm), L2 larvae, 6 days, larval mortality, growth regulation
Spodoptera littoralis = Spodoptera littoralis (Egyptian Cotton Leafworm) cotton leaf disc spray test; details: foliar, 72 h, 200 ppm spray on cotton leaf discs, L1 larvae, mortality, feeding behavior, growth regulation 3 DAT
Thrips tabaci = Thrips tabaci (Onion Thrips) sunflower leaf disc spray test; details: foliar, 168 h, 200 ppm spray on sunflower leaf discs, population of mixed ages, 7 days, mortality
Diabrotica balteata = Diabrotica balteata (Corn Root Worm) artificial diet MTP test; details: 120 h, 200 ppm (concentration in well 18 ppm), L2 larvae, 5 days, larval mortality, growth regulation
Tetranychus urticae = Tetranychus urticae (Two-Spotted Spider Mite) bean leaf disc spray test; details: foliar, 192 h, read-out: control of Tetranychus urticae
[1] = 200 ppm spray on bean leaf discs, mite populations of mixed ages, 8 days, egg, larval and adult mortality

Measured: pest or weed control at 200 ppm

COc1c(NC(=O)c2ccsc2)cccc1C(=O)Nc1c(Cl)cc(C(F)(C(F)(F)F)C(F)(F)C(F)(F)F)cc1Br (stereo not shown) [B124]
≥ 80%: Heliothis virescens | Myzus persicae | Plutella xylostella | Spodoptera littoralis | Thrips tabaci

COc1c(NC(=O)c2ccc(C(F)(F)F)nc2C)cccc1C(=O)Nc1c(Cl)cc(C(F)(C(F)(F)F)C(F)(F)C(F)(F)F)cc1Br (stereo not shown) [B127]
≥ 80%: Heliothis virescens | Plutella xylostella | Diabrotica balteata | Tetranychus urticae; [1] | Spodoptera littoralis | Thrips tabaci

COc1c(NC(=O)c2sc(C)nc2C(F)(F)F)cccc1C(=O)Nc1c(Cl)cc(C(F)(C(F)(F)F)C(F)(F)C(F)(F)F)cc1Br (stereo not shown) [B134]
≥ 80%: Heliothis virescens | Plutella xylostella | Diabrotica balteata | Tetranychus urticae; [1] | Spodoptera littoralis | Thrips tabaci

COc1c(NC(=O)c2ccc(Br)cc2Cl)cccc1C(=O)Nc1c(Cl)cc(C(F)(C(F)(F)F)C(F)(F)C(F)(F)F)cc1Br (stereo not shown) [B135]
≥ 80%: Heliothis virescens | Plutella xylostella | Diabrotica balteata | Tetranychus urticae; [1] | Spodoptera littoralis | Thrips tabaci

COc1c(NC(=O)c2ccc([N+](=O)[O-])cc2C(F)(F)F)cccc1C(=O)Nc1c(Cl)cc(C(F)(C(F)(F)F)C(F)(F)C(F)(F)F)cc1Br (stereo not shown) [B178]
≥ 80%: Heliothis virescens | Plutella xylostella | Diabrotica balteata | Tetranychus urticae; [1] | Spodoptera littoralis | Thrips tabaci

COc1c(NC(=O)c2ccc([N+](=O)[O-])cc2[N+](=O)[O-])cccc1C(=O)Nc1c(Cl)cc(C(F)(C(F)(F)F)C(F)(F)C(F)(F)F)cc1Br (stereo not shown) [B180]
≥ 80%: Heliothis virescens | Plutella xylostella | Diabrotica balteata | Tetranychus urticae | Spodoptera littoralis | Thrips tabaci

COc1c(NC(=O)c2cccc([N+](=O)[O-])c2Cl)cccc1C(=O)Nc1c(Cl)cc(C(F)(C(F)(F)F)C(F)(F)C(F)(F)F)cc1Br (stereo not shown) [B183]
≥ 80%: Heliothis virescens | Plutella xylostella | Diabrotica balteata | Tetranychus urticae; [1] | Spodoptera littoralis | Thrips tabaci

COc1c(NC(=O)c2cccc(Cl)c2Cl)cccc1C(=O)Nc1c(Cl)cc(C(F)(C(F)(F)F)C(F)(F)C(F)(F)F)cc1Br (stereo not shown) [B184]
≥ 80%: Heliothis virescens | Plutella xylostella | Diabrotica balteata | Tetranychus urticae; [1] | Spodoptera littoralis | Thrips tabaci

COc1c(NC(=O)c2ccc([N+](=O)[O-])c(F)c2)cccc1C(=O)Nc1c(Cl)cc(C(F)(C(F)(F)F)C(F)(F)C(F)(F)F)cc1Br (stereo not shown) [B192]
≥ 80%: Heliothis virescens | Plutella xylostella | Diabrotica balteata | Tetranychus urticae; [1] | Spodoptera littoralis | Thrips tabaci

COc1c(NC(=O)c2ccc(C#N)cc2C)cccc1C(=O)Nc1c(Cl)cc(C(F)(C(F)(F)F)C(F)(F)C(F)(F)F)cc1Cl (stereo not shown) [C2, N-[2,6-dichloro-4-(1,2,2,3,3,3-hexafluoro-1-trifluoromethylpropyl)phenyl]-3-(4-cyano-2-methylbenzoylamino)-2-methoxybenzamide]
≥ 80%: Heliothis virescens | Plutella xylostella | Diabrotica balteata | Tetranychus urticae; [1] | Spodoptera littoralis | Thrips tabaci

COc1c(NC(=O)c2ccc([N+](=O)[O-])cc2)cccc1C(=O)Nc1c(Cl)cc(C(F)(C(F)(F)F)C(F)(F)C(F)(F)F)cc1Cl (stereo not shown) [C7]
≥ 80%: Heliothis virescens | Plutella xylostella | Diabrotica balteata | Tetranychus urticae; [1] | Spodoptera littoralis | Thrips tabaci

COc1c(NC(=O)c2ccc(F)cc2C)cccc1C(=O)Nc1c(Cl)cc(C(F)(C(F)(F)F)C(F)(F)C(F)(F)F)cc1Cl (stereo not shown) [C9]
≥ 80%: Heliothis virescens | Plutella xylostella | Diabrotica balteata | Tetranychus urticae; [1] | Spodoptera littoralis | Thrips tabaci

COc1c(NC(=O)c2ccc([N+](=O)[O-])cc2Cl)cccc1C(=O)Nc1c(Cl)cc(C(F)(C(F)(F)F)C(F)(F)C(F)(F)F)cc1Cl (stereo not shown) [C11]
≥ 80%: Heliothis virescens | Plutella xylostella | Diabrotica balteata | Tetranychus urticae; [1] | Spodoptera littoralis | Thrips tabaci

COc1c(NC(=O)c2ccc(OC(F)(F)F)cc2)cccc1C(=O)Nc1c(Cl)cc(C(F)(C(F)(F)F)C(F)(F)C(F)(F)F)cc1Cl (stereo not shown) [C13]
≥ 80%: Heliothis virescens | Plutella xylostella | Diabrotica balteata | Tetranychus urticae; [1] | Spodoptera littoralis | Thrips tabaci

COc1c(NC(=O)c2ccccc2)cccc1C(=O)Nc1c(Cl)cc(C(F)(C(F)(F)F)C(F)(F)C(F)(F)F)cc1Cl (stereo not shown) [C18]
≥ 80%: Heliothis virescens | Myzus persicae | Plutella xylostella | Spodoptera littoralis | Thrips tabaci

COc1c(NC(=O)c2ccccc2C(F)(F)F)cccc1C(=O)Nc1c(Cl)cc(C(F)(C(F)(F)F)C(F)(F)C(F)(F)F)cc1Cl (stereo not shown) [C20]
≥ 80%: Heliothis virescens | Plutella xylostella | Diabrotica balteata | Tetranychus urticae; [1] | Spodoptera littoralis | Thrips tabaci

COc1c(NC(=O)c2snnc2C)cccc1C(=O)Nc1c(Cl)cc(C(F)(C(F)(F)F)C(F)(F)C(F)(F)F)cc1Cl (stereo not shown) [C21]
≥ 80%: Heliothis virescens | Plutella xylostella | Diabrotica balteata | Tetranychus urticae; [1] | Spodoptera littoralis | Thrips tabaci

COc1c(NC(=O)c2cccc(F)c2F)cccc1C(=O)Nc1c(Cl)cc(C(F)(C(F)(F)F)C(F)(F)C(F)(F)F)cc1Cl (stereo not shown) [C22]
≥ 80%: Heliothis virescens | Plutella xylostella | Diabrotica balteata | Tetranychus urticae; [1] | Spodoptera littoralis | Thrips tabaci

COc1c(NC(=O)c2ccc(F)cc2F)cccc1C(=O)Nc1c(Cl)cc(C(F)(C(F)(F)F)C(F)(F)C(F)(F)F)cc1Cl (stereo not shown) [C23]
≥ 80%: Heliothis virescens | Plutella xylostella | Diabrotica balteata | Tetranychus urticae; [1] | Spodoptera littoralis | Thrips tabaci

COc1c(NC(=O)c2ccc(F)cc2C)cccc1C(=O)Nc1c(Cl)cc(C(F)(C(F)(F)F)C(F)(F)F)cc1Cl [E7]
≥ 80%: Heliothis virescens | Plutella xylostella | Diabrotica balteata | Tetranychus urticae; [1] | Spodoptera littoralis | Thrips tabaci

COc1c(NC(=O)c2ccc(F)cc2Cl)cccc1C(=O)Nc1c(Cl)cc(C(F)(C(F)(F)F)C(F)(F)F)cc1Cl [E19]
≥ 80%: Heliothis virescens | Plutella xylostella | Diabrotica balteata | Tetranychus urticae; [1] | Spodoptera littoralis | Thrips tabaci

COc1c(NC(=O)c2snnc2C)cccc1C(=O)Nc1c(Cl)cc(C(F)(C(F)(F)F)C(F)(F)F)cc1Cl [E20]
≥ 80%: Heliothis virescens | Plutella xylostella | Diabrotica balteata | Tetranychus urticae; [1] | Spodoptera littoralis | Thrips tabaci

COc1c(NC(=O)c2cccc(C#N)c2)cccc1C(=O)Nc1c(C)cc(C(F)(C(F)(F)F)C(F)(F)C(F)(F)F)cc1C (stereo not shown) [F21]
≥ 80%: Heliothis virescens | Plutella xylostella | Diabrotica balteata | Tetranychus urticae; [1] | Spodoptera littoralis | Thrips tabaci

COc1c(NC(=O)c2ccc([N+](=O)[O-])cc2)cccc1C(=O)Nc1c(C)cc(C(F)(C(F)(F)F)C(F)(F)C(F)(F)F)cc1C (stereo not shown) [F29]
≥ 80%: Heliothis virescens | Plutella xylostella | Diabrotica balteata | Tetranychus urticae; [1] | Spodoptera littoralis | Thrips tabaci

COCc1cc(C(F)(C(F)(F)F)C(F)(F)C(F)(F)F)cc(Cl)c1NC(=O)c1cccc(NC(=O)c2ccc(C#N)cc2C)c1OC (stereo not shown) [H1]
≥ 80%: Heliothis virescens | Myzus persicae | Plutella xylostella

COc1c(NC(=O)c2c(F)cc(F)cc2F)cccc1C(=O)Nc1c(C)cc(C(F)(C(F)(F)F)C(F)(F)F)cc1C [K1]
≥ 80%: Heliothis virescens | Plutella xylostella | Diabrotica balteata | Tetranychus urticae; [1] | Spodoptera littoralis | Thrips tabaci
